Results taken from patent publication US8124634B2, “CB1 receptor modulators” (7TM Pharma A/S, priority 2006, dated 2012).

Biological target: T1, human CB1 receptor (Homo sapiens, UniProt P21554)
T1 construct: expressed in transfected cells; membranes
Test: Cannabinoid Receptor-1 functional assay: inhibition of CP55940-induced [35S]GTPγS binding to membranes of CHO-K1 cells expressing human CB1
Assay type: biochemical
Details: 3 nM CP55940, hCB1 membranes, [35S]GTPγS SPA; read-out: IC50 value for antagonizing a CB1 receptor agonist
Excerpt: Transfection and Cell Culture—The cDNA encoding the human CB1 (Cannabinoid Receptor-1) receptor (GenBank accession number NM_016083) was cloned from a human adipose tissue cDNA library and cloned into the eukaryotic expression vector pcDNA3.1 (Invitrogen).
Chinese Hamster Ovary cells (CHO-K1) stably expressing recombinant human CB1 were generated by transfecting the plasmid containing the coding sequence of the human CB1 receptor in CHO-K1 cells, using lipofectamin, according to the manufacturer instructions. Resistant clones were selected in the presence of 600 μg/ml G418 (Life technology). Stably transfected CHO-K1 cells were maintained in Ham's F-12 culture medium (Invitrogen), supplemented with 10% fetal calf serum (Invitrogen), 100 U/ml penicillin, 100 μg/ml streptomycin (Life Technology), and 600 μg/ml G418.
Cannabinoid Receptor-1 Functional Assay.
Functional activities of the above examples of compounds of the invention were assessed in vitro by measuring their ability to inhibit CP55940-induced [^35S]GTPγS binding to membranes prepared from CHO-K1 cells expressing the human CB1 receptor (described in Transfection and Cell Culture). CP55940 is a well known non-selective CB1 and CB2 receptor agonist (e.g Felder et al., 1995, Molecular Pharmacology, (48) 443-50). Membranes were prepared by a standard procedure. Briefly, cells were harvested using 10 mM EDTA and collected by centrifugation. Pelleted cells were homogenized in ice-cold 20 mM Hepes (pH 7.4),10 mM EDTA and protease inhibitors (Complete protease inhibitor cocktail tablet, Roche) using an Ultra Turrax Homogenizer. The homogenate was centrifuged at 14 000 rpm for 45 min. at 4° C. The resultant pellet was resuspended in the same buffer but with only 0.1 mM EDTA and was again centrifuged at 14 000 rpm for 45 min. at 4° C. The resulting pellet (membranes) was resuspended in 20 mM Hepes (pH 7.4), 0.1 mM EDTA, 2 mM MgCl2 and protease inhibitors and protein concentration was determined by Micro BCA Protein Assay Reagent Kit (Pierce Biotechnology) according to the manufacturer instructions. The [^35S]GYPγS SPA (Scintillation Proximity Assay) binding assay was performed by incubating 5 μg/well hCB1-membranes with 1 nM [^35S]GYPγS (Perkin Elmer—NEG 030H) in the presence of 3 nM of CP55940 and various concentrations of the test compounds at room temperature for 1 hr in 96-well microtiter plates. 0.4 mg/well SPA beads (PVT-WGA; RPNQ0001 Amersham Pharmacia Biotech) were then added and the incubation continued for further 30 min. on an orbital shaker. The assay buffer contained 50 mM HEPES (pH 7.5), 50 mM NaCl, 2.5 mM MgCl2, 0.1% BSA, 1 μM GDP and 100 μg/ml Saponin. Microtiter plates were centrifuged at 1500 rpm for 5 min. and radioactivity was read immediately using a Topcounter (PerkinElmer Life Sciences). Data were analyzed and IC50 values determined by non-linear regression using the Prism software (GraphPad Software, San Diego).

T1 sequence (P21554 whole entry): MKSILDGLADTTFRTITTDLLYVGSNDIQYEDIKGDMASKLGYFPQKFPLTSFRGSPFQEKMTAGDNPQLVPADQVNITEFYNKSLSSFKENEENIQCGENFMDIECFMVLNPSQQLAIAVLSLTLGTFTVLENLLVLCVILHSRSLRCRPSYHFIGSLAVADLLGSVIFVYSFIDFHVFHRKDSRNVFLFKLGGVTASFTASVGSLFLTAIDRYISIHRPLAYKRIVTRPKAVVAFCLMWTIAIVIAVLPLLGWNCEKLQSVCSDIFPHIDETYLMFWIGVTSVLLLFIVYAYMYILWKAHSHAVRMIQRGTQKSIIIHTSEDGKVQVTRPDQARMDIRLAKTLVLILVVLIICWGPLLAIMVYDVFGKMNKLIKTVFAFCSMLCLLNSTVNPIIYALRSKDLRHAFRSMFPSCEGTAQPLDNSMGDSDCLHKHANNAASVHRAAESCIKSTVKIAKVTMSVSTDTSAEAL

Row | Compound | IC50 [nM]
1 | CCC(NC(=O)c1nn(-c2ccccc2Cl)c(-c2ccc(Cl)cc2)c1Cc1nnn[nH]1)c1ccc(Br)cc1 (centres unmarked) [[2.11], 1-(2-Chloro-phenyl)-5-(4-chloro-phenyl)-4-(1H-tetrazol-5-ylmethyl)-1H-pyrazole-3-carboxylic acid [1-(4-bromo-phenyl)-propyl]-amide] | < 300
2 | C[C@@H](NC(=O)c1nn(-c2ccccc2Cl)c(-c2ccc(Cl)cc2)c1Cc1nn[nH]n1)c1ccc(Br)cc1 [[2.3], 1-(2-Chloro-phenyl)-5-(4-chloro-phenyl)-4-(1H-tetrazol-5-ylmethyl)-1H-pyrazole-3-carboxylic acid [(R)-1-(4-bromo-phenyl)-ethyl]-amide] | < 300
3 | CC(NC(=O)c1nn(-c2ccccc2Cl)c(-c2ccc(Cl)cc2)c1Cc1nnn[nH]1)c1ccc(C(F)(F)F)c(F)c1 (centres unmarked) [[2.10], 5-(4-Chloro-phenyl)-1-(2-chloro-phenyl)-4-(1H-tetrazol-5-ylmethyl)-1H-pyrazole-3-carboxylic acid [1-(3-fluoro-4-trifluoromethyl-phenyl)-ethyl]-amide] | < 300
4 | CC(C)(Cc1ccccc1)NC(=O)c1nn(-c2ccccc2Cl)c(-c2ccc(Cl)cc2)c1Cc1nnn[nH]1 [[2.2], 1-(2-Chloro-phenyl)-5-(4-chloro-phenyl)-4-(1H-tetrazol-5-ylmethyl)-1H-pyrazole-3-carboxylic acid (1,1-dimethyl-2-phenyl-ethyl)-amide] | < 300
5 | CC(C)(NC(=O)c1nn(-c2ccccc2Cl)c(-c2ccc(Cl)cc2)c1CC(=O)O)c1ccc(F)cc1 [Compound [1.1], {1-(2-Chloro-phenyl)-5-(4-chloro-phenyl)-3-[1-(4-fluoro-phenyl)-1-methyl-ethylcarbamoyl]-1H-pyrazol-4-yl}-acetic acid] | < 300
6 | C[C@@H](NC(=O)c1nn(-c2ccccc2Cl)c(-c2ccc(Cl)cc2)c1CC(=O)O)c1ccc(Br)cc1 [[1.6], [3-[(R)-1-(4-Bromo-phenyl)-ethylcarbamoyl]-1-(2-chloro-phenyl)-5-(4-chloro-phenyl)-1H-pyrazol-4-yl]-acetic acid] | < 300
7 | C[C@H](c1ccc(C(F)(F)F)cc1)N(C)C(=O)c1nn(-c2ccccc2Cl)c(-c2ccc(Cl)cc2)c1CC(=O)O [Compound [1.7], (1-(2-Chloro-phenyl)-5-(4-chloro-phenyl)-3-{methyl-[(R)-1-(4-trifluoromethyl-phenyl)-ethyl]-carbamoyl}-1H-pyrazol-4-yl)-acetic acid] | < 300
8 | C[C@@H](NC(=O)c1nn(-c2ccccc2Cl)c(-c2ccc(Cl)cc2)c1Cc1nn[nH]n1)c1ccc(C(F)(F)F)cc1 [[2.6], 5-(4-Chloro-phenyl)-1-(2-chloro-phenyl)-4-(2H-tetrazol-5-ylmethyl)-1H-pyrazole-3-carboxylic acid [(R)-1-(4-trifluoromethyl-phenyl)-ethyl]-amide] | < 300
9 | C[C@@H](NC(=O)c1nn(-c2ccccc2Cl)c(-c2ccc(Cl)cc2)c1OCc1nnn[nH]1)c1ccc(C(F)(F)F)cc1 [Compound [3.1], 1-(2-Chloro-phenyl)-5-(4-chloro-phenyl)-4-(1H-tetrazol-5-ylmethoxy)-1H-pyrazole-3-carboxylic acid [(R)-1-(4-trifluoromethyl-phenyl)-ethyl]-amide] | < 300
10 | C[C@@H](NC(=O)c1nn(-c2ccccc2Cl)c(-c2ccc(Cl)cc2)c1Cc1nnn[nH]1)c1cccc(F)c1 [[2.17], 1-(2-Chloro-phenyl)-5-(4-chloro-phenyl)-4-(1H-tetrazol-5-ylmethyl)-1H-pyrazole-3-carboxylic acid [(R)-1-(3-fluoro-phenyl)-ethyl]-amide] | < 300
11 | C[C@@H](NC(=O)c1nn(-c2ccccc2Cl)c(-c2ccc(Cl)cc2)c1Cc1nn[nH]n1)c1ccc(OC(F)(F)F)cc1 [[2.26], 1-(2-Chloro-phenyl)-5-(4-chloro-phenyl)-4-(2H-tetrazol-5-ylmethyl)-1H-pyrazole-3-carboxylic acid [(R)-1-(4-trifluoromethoxyl-phenyl)-ethyl]-amide] | < 300
12 | CC(C)(Cc1ccc(F)cc1)NC(=O)c1nn(-c2ccccc2Cl)c(-c2ccc(Cl)cc2)c1Cc1nn[nH]n1 [[2.5], 5-(4-Chloro-phenyl)-1-(2-chloro-phenyl)-4-(2H-tetrazol-5-ylmethyl)-1H-pyrazole-3-carboxylic acid [2-(4-fluoro-phenyl)-1,1-dimethyl-ethyl]-amide] | < 300
13 | CC(C)(NC(=O)c1nn(-c2ccccc2Cl)c(-c2ccc(Cl)cc2)c1Cc1nnn[nH]1)c1ccc(F)cc1 [[2.7], 1-(2-Chloro-phenyl)-5-(4-chloro-phenyl)-4-(1H-tetrazol-5-ylmethyl)-1H-pyrazole-3-carboxylic acid [1-(4-fluoro-phenyl)-1-methyl-ethyl]-amide] | 300 to 3000
14 | CC(NC(=O)c1nn(-c2ccccc2Cl)c(-c2ccc(Cl)cc2)c1Cc1nnn[nH]1)c1cc(F)cc(F)c1 (centres unmarked) [[2.18], 1-(2-Chloro-phenyl)-5-(4-chloro-phenyl)-4-(1H-tetrazol-5-ylmethyl)-1H-pyrazole-3-carboxylic acid [1-(3,5-difluoro-phenyl)-ethyl]-amide] | < 300
15 | C[C@H](c1ccc(OC(F)(F)F)cc1)N(C)C(=O)c1nn(-c2ccccc2Cl)c(-c2ccc(Cl)cc2)c1CC(=O)O [[1.9], (1-(2-Chloro-phenyl)-5-(4-chloro-phenyl)-3-{methyl-[(R)-1-(4-trifluoromethoxy-phenyl)-ethyl]-carbamoyl}-1H-pyrazol-4-yl)-acetic acid] | < 300
16 | C[C@@H](NC(=O)c1nn(-c2ccccc2Cl)c(-c2ccc(Cl)cc2)c1Cc1nn[nH]n1)c1ccc(F)c(Cl)c1 [[2.24], 1-(2-Chloro-phenyl)-5-(4-chloro-phenyl)-4-(2H-tetrazol-5-ylmethyl)-1H-pyrazole-3-carboxylic acid [(R)-1-(3-chloro-4-fluoro-phenyl)-ethyl]-amide] | < 300
17 | C[C@@H](NC(=O)c1nn(-c2ccccc2Cl)c(-c2ccc(Cl)cc2)c1Cc1nnn[nH]1)c1ccc(Cl)cc1 [[2.9], 1-(2-Chloro-phenyl)-5-(4-chloro-phenyl)-4-(1H-tetrazol-5-ylmethyl)-1H-pyrazole-3-carboxylic acid [(R)-1-(4-chloro-phenyl)-ethyl]-amide] | < 300
